Assay results published in patent publication US20130184302A1, “METHODS FOR TREATING IRRITABLE BOWEL SYNDROME (IBS) AND INFECTIONS” (priority 2011, published 2013).
Read-outs that look alike come from different tables or passages of the source.

Tests used:
IBS patients = details: cited from earlier work
[1] = test system: C. difficile infection (CDI); assay: CDI trial: recurrence of CDI, recurrence rate per person-year; assay type: in vivo, human
Excerpt: Recurrence was defined to be a diarrhea and a positive C. diff stool toxin assay that occurred after initial clinical success.

[2] = test system: patients with diarrhea-predominant IBS; assay: IBS-QOL questionnaire, rifaximin 550 mg BID vs placebo in d-IBS; assay type: in vivo, human
Method: Both groups received placebo for an additional 14 days after the initial 2-week treatment. Quality of life was assessed with the 34-item IBS-QOL questionnaire at baseline and 4 weeks after initiating treatment. Each item was scored on a 5-point scale (1=not at all; 2=slightly; 3=moderately; 4=quite a bit; and 5=extremely or a great deal). Results for composite and subscale scores were converted to a scale ranging from 0 to 100, with higher scores indicating better QOL.
Following a 2-week initial treatment period, both groups of patients received placebo for an additional 14 days. Quality of life was assessed via the 34-item IBS-QOL questionnaire at baseline and 4 weeks after initiating treatment. Each item was scored on a 5-point scale (1=not at all; 2=slightly; 3=moderately; 4=quite a bit; 5=extremely or a great deal); results for composite and subscale scores were converted to a scale ranging from 0 to 100, with higher scores indicating better QOL.

[3] = test system: C. difficile infection (CDI); assay: CDI trial: efficacy adjusting for concomitant medication usage; assay type: in vivo, human
Excerpt: Table 48 sets forth the efficacy adjusting for concomitant medication usage.

[4] = test system: patients with diarrhea-predominant IBS; assay: Tolerability, adverse events, rifaximin 550 mg BID study; assay type: in vivo, human; details: rifaximin 550 mg BID 14 days
[5] = test system: C. difficile infection (CDI); assay: CDI trial: enteric symptoms at TOC; assay type: in vivo, human
Excerpt: Table 41 sets forth a summary of the enteric symptoms at TOC.

[6] = Pimentel, et al., responders/treated
[7] = Yang, et al, responders/treated
[8] = Rifaximin N = 117, Vancomycin N = 115
[9] = after initial clinical success, Rifaximin N = 67, Vancomycin N = 73
[10] = all subjects, Rifaximin N = 117, Vancomycin N = 115
[11] = Rifaximin N = 109, Vancomycin N = 112
[12] = Rifaximin N = 108, Vancomycin N = 111

In the case of `CO[C@H]1/C=C/O[C@@]2(C)Oc3c(C)c(O)c4c(O)c(c5c(nc6cc(C)ccn65)c4c3C2=O)NC(=O)/C(C)=C\C=C\[C@H](C)[C@H](O)[C@@H](C)[C@@H](O)[C@@H](C)[C@H](OC(C)=O)[C@@H]1C` [Rifaximin, (2S,16Z,18E,20S,21S,22R, 23R,24R,25S,26S,27S,28E)-5,6,21,23,25 Pentahydroxy-27-methoxy-2,4,11,16,20,22,24,26-octamethyl-2,7-(epoxypentadeca-(1,11,13)trienimino) benzofuro (4,5-e) pyrido(1,2,-a) benzimidazole-1,15(2H)-dione,25-acetate], the Initial treatment response (IBS patients; Jolley, IBS-D patients, 1200 mg/day for 10 days) is given as “Initial treatment response: 56% (25/45)”, the “Re-treatment response (at least 1)” value (IBS patients; Jolley, IBS-D patients, 2400 mg/day for 10 days) is given as “Re-treatment response (at least 1): 54%” and the “Complete (>90%) relief” value (IBS patients; Jolley, IBS-D patients) is given as “Complete (>90%) relief: 11% (5/45)”. For the same molecule, the “Complete (>90%) relief upon re-treatment” value (IBS patients; Jolley, IBS-D patients) was “re-treatment: 13% (3/24)”, the “Re-treatment response (at least 1)” value (IBS patients; Pimentel, et al., 1 to 6 re-treatments) was over 75% and the Initial treatment response (IBS patients; Pimentel, et al., 169 Non-C IBS Patients (Rome III), 400-550 mg TID for 14 days) was “Initial treatment response: 75%”. The Duration of benefit (IBS patients; Pimentel, et al.) was “Duration of benefit is ~4 m”, the “Re-treatment response, First” value (IBS patients; [6]) was 54/65 and the “Re-treatment response, Second” value (IBS patients; [6]) was 38/40. The “Re-treatment response, Third” value (IBS patients; [6]) was 17/18, the Initial treatment response (IBS patients; Weinstock, 99 Non-C IBS Patients (Rome II), 1200-1650 mg/day for 10 days) was “Initial treatment response: 75% (74/99)” and the “Patients who did not require retreatment” value (IBS patients; Weinstock) was 27% did not require retreatment. The “Patients with only 12 retreatment in 2 y” value (IBS patients; Weinstock) was 51% only 12 retreatment in 2 y, the “Patients who maintained response” value (IBS patients; Weinstock, for mean 1.6 y) was 41% and the “Mean time response was maintained” value (IBS patients; Weinstock, in the 41% who maintained response) was 1.6 y. For the same molecule, the “Re-treatment response (at least 1)” value (IBS patients; Yang, et al, 1200 mg/day for 10 days) was 100%, the Initial treatment response (IBS patients; Yang, et al, 84 IBS Patients (Rome I), 1200 mg/day for 10 days) was “Initial treatment response: 69% (58/84)” and the “Re-treatment response, First” value (IBS patients; [7]) was 16/16. For the same molecule, the “Re-treatment response, Second” value (IBS patients; [7]) was 4/4, the “Recurrence Rate per Person-Year Exposure” value [1, 8] was 0.613 and the “Recurrence of CDI: Treatment Difference” value ([1]; Rifaximin vs Vancomycin, subjects with initial clinical success) was 4.7%. The “No Recurrence of CDI, number of subjects” value [1, 9] was 61, the “No Recurrence of CDI, percent of subjects” value [1, 9] was “(91%)” and the “Recurrence of CDI, number of subjects” value [1, 9] was 6. For the same molecule, the “Recurrence of CDI, percent of subjects” value [1, 9] was “(9%)”, the “Recurrence: No, number of subjects” value [1, 10] was 111 and the “Recurrence: No, percent of subjects” value [1, 10] was “(95%)”. The “Recurrence: Yes, number of subjects” value [1, 10] was 6, the “Recurrence: Yes, percent of subjects” value [1, 10] was “(5%)” and the “Mean Change From Baseline in IBS-QOL Scores at Week 4: Body image” value ([2]; Rifaximin 1100 mg/d (n = 191)) was 20.1. The “Mean Change From Baseline in IBS-QOL Scores at Week 4: Dysphoria” value ([2]; Rifaximin 1100 mg/d (n = 191)) was 24.8, the “Mean Change From Baseline in IBS-QOL Scores at Week 4: Food avoidance” value ([2]; Rifaximin 1100 mg/d (n = 191)) was 25.0 and the “Mean Change From Baseline in IBS-QOL Scores at Week 4: Health worry” value ([2]; Rifaximin 1100 mg/d (n = 191)) was 16.0. For the same molecule, the “Mean Change From Baseline in IBS-QOL Scores at Week 4: Interference with activity” value ([2]; Rifaximin 1100 mg/d (n = 191)) was 22.2, the “Mean Change From Baseline in IBS-QOL Scores at Week 4: Relationship” value ([2]; Rifaximin 1100 mg/d (n = 191)) was 14.9 and the “Mean Change From Baseline in IBS-QOL Scores at Week 4: Sexual” value ([2]; Rifaximin 1100 mg/d (n = 191)) was 13.6. For the same molecule, the “Mean Change From Baseline in IBS-QOL Scores at Week 4: Social reaction” value ([2]; Rifaximin 1100 mg/d (n = 191)) was 17.3, the “Mean Change From Baseline in IBS-QOL Scores at Week 4: Overall score” value ([2]; Rifaximin 1100 mg/d (n = 191), scale 0 to 100) was 20.4 and the “Improvement with rifaximin over placebo, IBS-QOL: Body image” value ([2]; Week 4, 1100 mg/d) was 37.4%. For the same molecule, the “Improvement with rifaximin over placebo, IBS-QOL: Dysphoria” value ([2]; Week 4, 1100 mg/d) was 25.3%, the “Improvement with rifaximin over placebo, IBS-QOL: Food avoidance” value ([2]; Week 4, 1100 mg/d) was 22.1% and the “Improvement with rifaximin over placebo, IBS-QOL: Health worry” value ([2]; Week 4, 1100 mg/d) was 30.6%. The “Improvement with rifaximin over placebo, IBS-QOL: Interference with activity” value ([2]; Week 4, 1100 mg/d) was 22.2%, the “Improvement with rifaximin over placebo, IBS-QOL: Overall score” value ([2]; Week 4, 1100 mg/d) was 28.7% and the “Improvement with rifaximin over placebo, IBS-QOL: Relationship” value ([2]; Week 4, 1100 mg/d) was 39.5%. The “Improvement with rifaximin over placebo, IBS-QOL: Sexual” value ([2]; Week 4, 1100 mg/d) was 24.9%, the “Improvement with rifaximin over placebo, IBS-QOL: Social reaction” value ([2]; Week 4, 1100 mg/d) was 31.6% and the “Diarrhea: No, number of subjects” value [3, 11] was 71. For the same molecule, the “Diarrhea: No, percent of subjects” value [3, 11] was “(65%)”, the “Diarrhea: Yes, number of subjects” value [3, 11] was 38 and the “Diarrhea: Yes, percent of subjects” value [3, 11] was “(35%)”. The “Clinical Success: No, number of subjects” value [3, 8] was 59, the “Clinical Success: No, percent of subjects” value [3, 8] was “(50%)” and the “Clinical Success: Yes, number of subjects” value [3, 8] was 58. For the same molecule, the “Clinical Success: Yes, percent of subjects” value [3, 8] was “(50%)”, the “Clinical Success: Treatment Difference” value ([3]; Rifaximin vs Vancomycin) was −10.4% and the “Diarrhea: Treatment Difference” value ([3]; Rifaximin vs Vancomycin) was −8.1%. The “Tolerability, incidence of adverse events compared with placebo” value [4] was “well tolerated”, the “Diarrhea: No, number of subjects” value [5, 12] was 86 and the “Diarrhea: No, percent of subjects” value [5, 12] was “(80%)”. For the same molecule, the “Diarrhea: Yes, number of subjects” value [5, 12] was 22, the “Diarrhea: Yes, percent of subjects” value [5, 12] was “(20%)” and the “Fever: No, number of subjects” value [5, 12] was 98. The “Fever: No, percent of subjects” value [5, 12] was “(91%)”, the “Fever: Yes, number of subjects” value [5, 12] was 10 and the “Fever: Yes, percent of subjects” value [5, 12] was “(9%)”. For the same molecule, the “Severe Abdominal Pain/Discomfort: No, number of subjects” value [5, 12] was 80, the “Severe Abdominal Pain/Discomfort: No, percent of subjects” value [5, 12] was “(74%)” and the “Severe Abdominal Pain/Discomfort: Yes, number of subjects” value [5, 12] was 28. The “Severe Abdominal Pain/Discomfort: Yes, percent of subjects” value [5, 12] was “(26%)”, the “Diarrhea: Treatment Difference” value ([5]; Rifaximin vs Vancomycin) was −1.5% and the “Fever: Treatment Difference” value ([5]; Rifaximin vs Vancomycin) was −7.5%. The “Severe Abdominal Pain/Discomfort: Treatment Difference” value ([5]; Rifaximin vs Vancomycin) was −11.5%.
